For 25 compounds, EC50 results are on record in US20210371388A1, “Bicyclic Carboxamide with Exocyclic Urea Derivatives as Antivirals for the Treatment of HBV Infection” (Baruch S. Blumberg Institute, priority 2020, published 2021).

In the assay the test system is HBV replication in AML12HBV10 cells. Put plainly: Antiviral efficacy: HBV DNA in AML12HBV10 cell lysates by dot-blot hybridization. The assay is classed as cell-based. Conditions: Hepatitis B virus, AML12HBV10, 48 h, read-out: Antiviral activity (EC50), AML12HBV10 cells, 48 hours treatment, concentration that reduces the amount of HBV DNA by 50%. How it is done: The antiviral efficacy of the compounds of the disclosure, as presented in Table 2, were determined in AML12HBV10 cells. AML12HBV10 is an immortalized murine hepatocyte (AML12)-derived stable cell line that supports robust HBV replication in a tetracycline inducible manner (Xu et al.). The cells were seeded into 96 well plates at a density of 2×10^4 cells per well and cultured in DMEM/F12 media with 10% fetal bovine serum in the absence of tetracycline to allow pgRNA transcription and HBV DNA replication. One day after seeding, cells were left untreated or treated with a serial dilution of testing compounds, ranging from 50 μM to 0.39 μM, for 48 hours. Cells were then lysed by adding into each well of 100 μl lysis buffer containing 10 mM Tris-HCl (pH 7.6), 1 mM EDTA, 100 mM NaCl and 1% NP-40 and incubated at 37° C. for 30 minutes. Half amount (50 μλ) of cell lysate from each well was combined with equal volume of denaturing solution containing 0.5N NaOH and 1.5M NaCl. After 5 minute incubation, 100 μl of neutralization solution (1M Tris-HCl, pH 7.4, 1.5M NaCl) was added into each well. The denatured cell lysates (totally 200 μl) were applied onto Nylon membrane using 96-well dot-blot manifold (Biorad). HBV DNA in the cell lysates were determined by dot-blot hybridization with alpha-^32P-UTP-labelled riboprobe specific for HBV minus strand DNA. The antiviral efficacy of a compound of the disclosure was expressed as the concentration that reduces the amount of HBV DNA by 50% (EC50).

Some results are limits rather than exact numbers.

As for `O=C(Nc1ccc(F)c(Cl)c1)N1CCNc2cc(OCc3ccccc3)ccc21` [Entry 87], the EC50 was 2820 nM.
Next, `O=C(Nc1ccc(F)c(Cl)c1)N1C(c2ccccc2)CN[C@H]2CCCC[C@@H]21` (stereo partly shown) [Entry 88]: no less than 10000 nM.
Next, `O=C(Nc1ccc(F)c(Cl)c1)N1c2ccccc2NCC1CN1CCOCC1` (stereo not shown) [Entry 89]: 7300 nM; `COC(=O)C1COCCN1CC1CNc2ccccc2N1C(=O)Nc1ccc(F)c(Cl)c1` (stereo not shown) [Entry 90]: 2200 nM.
Next, `O=C(O)C1COCCN1CC1CNc2ccccc2N1C(=O)Nc1ccc(F)c(Cl)c1` (stereo not shown) [Entry 91]: no less than 10000 nM; `O=C(Nc1ccc(F)c(Cl)c1)N1CC(CN2CCOCC2)Nc2ccccc21` (stereo not shown) [Entry 96]: no less than 10000 nM; `COC(=O)[C@H]1CC(F)(F)CN1CC1CNc2ccccc2N1C(=O)Nc1ccc(F)c(Cl)c1` (stereo partly shown) [Entry 97]: no less than 10000 nM.
On to `O=C(O)[C@H]1CC(F)(F)CN1CC1CNc2ccccc2N1C(=O)Nc1ccc(F)c(Cl)c1` (stereo partly shown) [Entry 98], for which the EC50 is no less than 10000 nM.
Regarding `COC(=O)[C@@H]1CC(F)(F)CN1CC1CNc2ccccc2N1C(=O)Nc1ccc(F)c(Cl)c1` (stereo partly shown) [Entry 100], the EC50 amounted to 1110 nM.
Consider `O=C(Nc1ccc(F)c(Cl)c1)N1c2ccccc2NCC1CN1CCC2(CC1)OCCO2` (stereo not shown) [Entry 103], for which the EC50 is no less than 10000 nM.
The result for `CS(=O)(=O)N1CCN(CC2CNc3ccccc3N2C(=O)Nc2ccc(F)c(Cl)c2)CC1` (stereo not shown) [Entry 104] reads no less than 10000 nM; that for `CCOC(=O)C1=C(F)CCN(CC2CNc3ccccc3N2C(=O)Nc2ccc(F)c(Cl)c2)C1` (stereo not shown) [Entry 105], no less than 10000 nM; that for `CCOC(=O)C1CN(CC2CNc3ccccc3N2C(=O)Nc2ccc(F)c(Cl)c2)CCC1(F)F` (stereo not shown) [Entry 106], 7680 nM.
The result for `O=C(O)C1CCCN(CC2CNc3ccccc3N2C(=O)Nc2ccc(F)c(Cl)c2)C1` (stereo not shown) [Entry 107] reads no less than 10000 nM; that for `O=C(Nc1ccc(F)c(Cl)c1)N1c2ccccc2NCC1CN1CCC(F)(F)C(CO)C1` (stereo not shown) [Entry 108], 2170 nM.
Next, `O=C(Nc1ccc(F)c(Cl)c1)N1c2ccccc2NCC1CN1CCS(=O)(=O)CC1` (stereo not shown) [Entry 110]: 2000 nM; `O=C(Nc1cc(F)c(F)c(F)c1)N1CCN(C(=O)Nc2ccc(F)c(Cl)c2)c2ccccc21` [Entry 111]: 500 nM.
Turning to `O=C(Nc1ccc(F)c(Cl)c1)N1CCN(C(=O)Nc2cc(Cl)c(F)cc2F)c2ccccc21` [Entry 112], the EC50 is 290 nM.
Next, `O=C(O)C1CN(CC2CNc3ccccc3N2C(=O)Nc2ccc(F)c(Cl)c2)CC(F)(F)C1` (stereo not shown) [Entry 113]: 450 nM; `Cc1cc(NC(=O)N2CCNc3ccccc32)ccc1F` [Entry 116]: 240 nM.
Take `N#Cc1cc(NC(=O)N2CCNc3ccccc32)ccc1F` [Entry 119]: the EC50 was 520 nM.
Next, `O=C1CCN(C(=O)Nc2ccc(F)c(C(F)(F)F)c2)C2CCCCC12` (stereo not shown) [Entry 120]: 1090 nM; `O=C(Nc1ccc(F)c(C(F)(F)F)c1)N1CCNc2ccccc21` [Entry 122]: 320 nM; `O=C(Nc1ccc(F)c(C(F)F)c1)N1CCNc2ccccc21` [Entry 125]: 190 nM.
Next, `O=C1CCN(C(=O)Nc2cccc(Cl)c2)C2CCCCC12` (stereo not shown) [Entry 126]: 200 nM.
